Test results reported in patent US20120040009A1, “PARTICULATE PHARMACEUTICAL COMPOSITION WITH AN OPIOID AND AN OPIOID ANTAGONIST” (priority 2009, published 2012).

Conditions: non-opioid-dependent patients; intravenous administration of 200 mg morphine

C=CCN1CC[C@]23c4c5ccc(O)c4O[C@H]2C(=O)CC[C@@]3(O)[C@H]1C5 [naloxone, (5R,9R,13S,14S)-17-allyl-3,14-dihydroxy-4,5-epoxymorphinan-6-on]
naloxone sufficient to trigger discrete withdrawal symptoms: 0.4 mg
